Measured values published in ChEMBL document CHEMBL3046909, “C(18) acetylenic fatty acids of Ximenia americana with potential pesticidal activity” (J Agric Food Chem, 2000).
In brackets after ≈: the same amount, converted by molar mass.

How the values were obtained:
Artemia = experiment: (§1) Toxicity in Artemia (brine shrimps) larvae; assay type: organism-based; conditions: in vivo
[1] = as §1; assay type: organism-based; conditions: in vivo
[2] = tested on: Clavigralla tomentosicollis; experiment: Inhibition of hatching of Clavigralla tomentosicollis eggs in pods of cowpea at 4x10'4 ug/mL spray measured after 6 days; assay type: functional

SMILES: CC[C@H](CC[C@@H](C)[C@H]1CC[C@H]2[C@@H]3CC=C4C[C@@H](O)CC[C@]4(C)[C@H]3CC[C@]12C)C(C)C [BETA-SITOSTEROL]
- Activity (Artemia): Non-toxic

SMILES: C/C=C/C=C/C#C/C=C\CCCCCCCCC(=O)O
- LC50 [1]: 20 µg/mL (≈ 72.9 µM)
- inhibition (INH) [2]: 92%
